Reference: patent publication US20180042232A1, “Methods and Compositions for Reducing Anguina Nematode Infestation and Improving Grass Quality” (Bayer CropScience LP, priority 2015, published 2018)

Experiments:
Assay type in all cases: in vivo
[1] = tested on: Poa annua turfgrass; assay: Crop Circle ACS-430 canopy sensor vegetation index (RVI, NDVI) of a treated Poa annua green, Pebble Beach; conditions: for NDVI (Normalized Difference Vegetation Index) / RVI (Ratio Vegetation Index): Pebble Beach, 96 DAA; for NDVI (Normalized Difference Vegetation Index): untreated 0.7064; for RVI (Ratio Vegetation Index): untreated 5.830
Description: FIG. 3 sets forth comparative RVI measurements of Poa annua turfgrass treated with fluopyram at defined concentrations and doses. In the legend provided, each letter (e.g., “A,” “B,” “C,” etc.) represents a two week interval (e.g., AC=4-week interval).
FIG. 4 sets forth comparative NDVI measurements of Poa annua turfgrass treated with fluopyram at defined concentrations and doses. In the legend provided, each letter (e.g., “A,” “B,” “C,” etc.) represents a two week interval (e.g., AC=4-week interval).
(§1) A Poa annua green is treated by spraying the active ingredient on foliage and waiting at least three hours before irrigating into the thatch/mat layer for upward movement into the stem region (just above the crown) where the nematode resides. One or more applications can be made in 2-8 weeks. The interval may be longer if control has not declined, or treatments are to be applied in different seasons (e.g., spring and fall).
A Crop Circle ACS-430 active crop canopy sensor (Holland Scientific, Inc.) provided classic vegetation index data (RVI=Ratio Vegetation Indices; NDVI=Normalized difference vegetative index) from the turf canopy. Unlike passive radiometric light sensors, the Crop Circle ACS-430 is not limited by ambient lighting conditions and measurements were made by day due to its unique light source technology. Information produced by the sensor can be utilized to quantify the impact of nutrients, water, disease or other growing conditions on the turf plant. The ratio vegetation index (RVI) is formed by dividing the near infra-red irradiance by the red irradiance. Study plots were scanned at intervals to collect this quantitative data. The normalized difference vegetative index (NDVI) is calculated as follows: […]
where VIS and NIR stand for the spectral reflectance measurements acquired in the visible (red) and near-infrared regions, respectively.
(§2) In FIG. 3, RVI of a Poa annua green is evaluated 96 DAA. The first column represents RVI at 96 DAA in an untreated sample of turfgrass. The second column represents RVI at 96 DAA in turfgrass treated with 250 g ai/ha fluopyram at 4-week intervals. The third column represents RVI at 96 DAA in turfgrass treated with 500 g ai/ha fluopyram at 4-week intervals. The fourth column represents RVI at 96 DAA in turfgrass treated with 286 g ai/ha azadirachtin applied bi-weekly to the soil. FIG. 3 corresponds to Table 3, below.
as §2, with “4, NDVI” for “3, RVI”, “NDVI” for “RVI”, “4” for “3”, “4,” for “3,”

[2] = tested on: Poa annua turfgrass; assay: Turf quality evaluation of a treated Poa annua green, Pebble Beach; conditions: 96 DAA, 1-9 scale (9 = best, 6 = acceptable), untreated 4.8
Procedure: FIG. 2 sets forth comparative turf quality evaluations of Poa annua turfgrass treated with fluopyram at defined concentrations and doses. In the legend provided, each letter (e.g., “A,” “B,” “C,” etc.) represents a two week interval (e.g., AC=4-week interval).
as §1
as §2, with “2, turf quality” for “3, RVI”, “turf quality” for “RVI”, “2” for “3”, “2,” for “3,”

[3] = tested on: Anguina pacificae nematodes; assay: Nematode count in soil of a treated Poa annua green, Pebble Beach; conditions: 87 DAA, untreated 212.5
Description: FIG. 1 sets forth comparative numerical representations of Anguina pacificae nematodes found in 100 cc untreated soil, 100 cc soil treated with azadirachtin, and 100 cc soil treated with fluopyram at defined concentrations and doses. In the legend provided, each letter (e.g., “A,” “B,” “C,” etc.) represents a two week interval (e.g., AC=4-week interval).
Example 1 describes effects of various treatments on nematode population on a Poa annua green at Pebble Beach.
(§3) Trials are kept free of any pests that can interfere or impact and nematode evaluations and yields.
as §1
as §2, with “1,” for “3, RVI of”, “and counts of nematodes per 100 cc soil are taken 87 days after anthesis (DAA).” for “96 DAA.”, “nematode count” for “RVI”, “87” for “96”, “1” for “3”, “1,” for “3,”

[4] = tested on: Anguina pacificae nematode galls; assay: Nematode gall count of a treated Poa annua green, Pebble Beach
Description: FIG. 5 sets forth comparative numerical representations of Anguina pacificae nematodes galls found in 100 cc untreated soil, 100 cc soil treated with azadirachtin, and 100 cc soil treated with fluopyram at defined concentrations and doses. In the legend provided, each letter (e.g., “A,” “B,” “C,” etc.) represents a two week interval (e.g., AC=4-week interval).
Example 2 describes effects of various treatments on nematode population on a Poa annua green at Pebble Beach.
as §3, §1
In FIG. 5, a Poa annua green is evaluated and counts of nematode galls per 100 cc soil are taken 87 and 139 days after anthesis (DAA). The first and fifth columns represent nematode gall count at 87 and 139 DAA, respectively, in an untreated sample of turfgrass. The second and sixth columns represent nematode gall count at 87 and 139 DAA, respectively, in turfgrass treated with 250 g ai/ha fluopyram at 4-week intervals. The third and seventh columns represent nematode gall count at 87 and 139 DAA, respectively, in turfgrass treated with 500 g ai/ha fluopyram at 4-week intervals. The fourth and eighth columns represent nematode gall count at 87 and 139 DAA, respectively, in turfgrass treated with 286 g ai/ha azadirachtin applied bi-weekly to the soil. FIG. 5 corresponds to Table 5 (87 DAA) and Table 6 (139 DAA), below.

[5] = tested on: Anguina pacificae nematode galls; assay: Nematode gall count of a treated Poa annua green, The Links at Spanish Bay; conditions: 171 DAA, untreated 22.8
Description: FIG. 6 sets forth comparative numerical representations of Anguina pacificae nematode galls found in 100 cc untreated soil, 100 cc soil treated with azadirachtin+cimectacarb, and 100 cc soil treated with fluopyram at defined concentrations and doses. In the legend provided, each letter (e.g., “A,” “B,” “C,” etc.) represents a two week interval (e.g., AC=4-week interval).
Example 3 describes effects of various treatments on nematode population on a Poa annua green at The Links at Spanish Bay.
as §3, §1
In FIG. 6, a Poa annua green is evaluated and counts of nematode galls per 100 cc soil are taken 171 days after anthesis (DAA). The first column represents nematode count at 171 DAA in an untreated sample of turfgrass. The second column represents nematode count at 171 DAA in turfgrass treated with 250 g ai/ha fluopyram at 4-week intervals. […]

[6] = tested on: Poa annua turfgrass; assay: Turf quality evaluation of a treated Poa annua green, The Links at Spanish Bay; conditions: 179 DAA, 0-10 scale (10 = best), untreated 5.5
Procedure: FIG. 7 sets forth comparative turf quality evaluations of Poa annua turfgrass treated with fluopyram at defined concentrations and doses. In the legend provided, each letter (e.g., “A,” “B,” “C,” etc.) represents a two week interval (e.g., AC=4-week interval).
as §1
as §2, with “7, turf quality” for “3, RVI”, “179” for “96”, “turf quality” for “RVI”, “7” for “3”, “8,” for “3,”

[7] = 286 g ai/ha applied bi-weekly to the soil
[8] = 250 g ai/ha at 4-week intervals
[9] = 500 g ai/ha at 4-week intervals

With `C/C=C(\C)C(=O)O[C@H]1C[C@@H](OC(C)=O)[C@@]2(C(=O)OC)CO[C@H]3[C@@H](O)[C@@](C)([C@]45O[C@@]4(C)[C@H]4C[C@@H]5O[C@@H]5OC=C[C@@]54O)[C@H]4[C@]1(CO[C@]4(O)C(=O)OC)[C@@H]32` [azadirachtin] the “NDVI (Normalized Difference Vegetation Index)” value [1, 7] was 0.6865, the “RVI (Ratio Vegetation Index)” value [1, 7] was 5.425 and the “Turf Quality” value [2, 7] was 4.8. For the same compound, the Nematodes/100 cc soil [3, 7] was 270 nematodes/100 cc soil, the “Nematode galls/100 cc soil” value ([4]; 286 g ai/ha applied bi-weekly to the soil, 87 DAA, untreated 31) was 34 galls/100 cc soil and the “Nematode galls/100 cc soil” value ([4]; 286 g ai/ha applied bi-weekly to the soil, 139 DAA, untreated 19) was 16 galls/100 cc soil.

With `O=C(NCCc1ncc(C(F)(F)F)cc1Cl)c1ccccc1C(F)(F)F` [fluopyram, N-{2-[3-chloro-5-(trifluoromethyl)-2-pyridinyl]ethyl}-2-(trifluoromethyl) benzamide] the “Nematode galls/100 cc soil” value [5, 8] was 4.3 galls/100 cc soil, the “Nematode galls/100 cc soil” value [5, 9] was 1.8 galls/100 cc soil and the “NDVI (Normalized Difference Vegetation Index)” value [1, 8] was 0.7634. The “RVI (Ratio Vegetation Index)” value [1, 8] was 7.475, the “NDVI (Normalized Difference Vegetation Index)” value [1, 9] was 0.7908 and the “RVI (Ratio Vegetation Index)” value [1, 9] was 8.598. For the same compound, the “Vegetative index (RVI and NDVI) compared to the untreated control” value ([1]; averaged over the course of the study, Poa annua turfgrass) was “positively enhanced vegetative index”, the “Turf Quality” value [2, 8] was 7.4 and the “Turf Quality” value [2, 9] was 8.1. For the same compound, the Nematodes/100 cc soil [3, 8] was 17.5 nematodes/100 cc soil, the Nematodes/100 cc soil [3, 9] was 17.5 nematodes/100 cc soil and the “Nematode galls/100 cc soil” value ([4]; 250 g ai/ha at 4-week intervals, 87 DAA, untreated 31) was 6 galls/100 cc soil. The “Nematode galls/100 cc soil” value ([4]; 250 g ai/ha at 4-week intervals, 139 DAA, untreated 19) was 2 galls/100 cc soil, the “Nematode galls/100 cc soil” value ([4]; 500 g ai/ha at 4-week intervals, 87 DAA, untreated 31) was 3 galls/100 cc soil and the “Nematode galls/100 cc soil” value ([4]; 500 g ai/ha at 4-week intervals, 139 DAA, untreated 19) was 0.5 galls/100 cc soil. For the same compound, the “Turf Quality” value [6, 8] was 6.0 and the “Turf Quality” value [6, 9] was 8.5.
